One data set has as its system human whole blood. Kind of data set: Confirmation of presence and absence of hemolysis in whole blood with surfactant (Example 2). Here is the method: A surfactant was added to human whole blood for confirmation of presence and absence of hemolysis. […] Octyltrimethylammonium bromide (C8TAB) and hexadecyltrimethylammonium chloride (C16TAC) were used as cationic surfactants. N-decanoyl sarcosine sodium (N-DSS (NDS)) and N-lauroyl sarcosine sodium hydrate (NLS) were used as anionic surfactants. As amphoteric surfactants, CHAPS and N-dodecyl-N,N-dimethyl-3-ammonio-l-propanesulfonate (C12APS) were used.
More specifically, 900 μL of whole blood obtained after blood collection was added to the 5 mL polypropylene test tube (manufactured by nunc) containing 100 μL of D-PBS (-) supplemented with the surfactant. The surfactant was added to achieve a final concentration of 0.5 W/V % after mixed with whole blood. After the addition of whole blood, the test tubes were inverted for mixing, and allowed to stand at room temperature for 30 minutes. After centrifugation (3000 rpm, 5 minutes), the supernatant was collected for visual check of the presence and absence of hemolysis.

In data set [1] the test system is CD9, the surface marker protein of the extracellular vesicle (EV). The data set can be described thus: Recovery of EV from whole blood with chelating agent (CD9 measured in supernatant, Example 1). Set-up: species or system human. The settings on record: chelating agent final concentration 15 mM in whole blood.
Experimental: The chelating agent was added to human whole blood. After centrifugation, CD9 in the supernatant was measured. […]
The test system of data set [2] is CD9, the surface marker protein of extracellular vesicle (EV). Kind of data set: Recovery of EV from whole blood supplemented with chelating agent and surfactant (CD9 in supernatant, Example 3). Also on record: species or system human. The settings on record: chelating agent 60 mM.
Data set [3] has the same test system. Kind of data set: Study of action of chelating agent and surfactant on whole blood or on immune reaction (CD9, Example 5). Set-up: species or system human. The settings on record: for vs. no EGTA (%): 100 mM EGTA in particle solution vs none. As to the method:
(§1) To 0.01 g/mL of magnetic particles in 10 mM MES buffer (pH 5.0), 0.2 mg/mL of a mouse anti-CD9 monoclonal antibody (Fujirebio Inc.) that recognizes an extracellular vesicle (EV) surface marker CD9, was added. Then, the resulting solution was gently stirred at 25° C. for one hour for incubation. After the reaction, the magnetic particles were magnetically collected and washed with a washing solution (50 mM Tris buffer, 150 mM NaCl2, 2.0% BSA, pH 7.2) in order to obtain anti-CD9 antibody solid-phased particles. Each antibody solid-phased particle was suspended in a particle diluent (50 mM Tris buffer, 1 mM EDTA-2Na, 0.1% NaN3, 2.0% BSA, pH 7.2) in order to obtain each antibody solid-phased particle solution.
(§2) Desalted alkaline phosphatase (ALP) was mixed with N-(4-maleimidobutyryloxy)-succinimide (GMBS) (final concentration 0.3 mg/mL) and the resulting solution was allowed to stand at 30° C. for one hour for maleimidation of ALP. Next, in a coupling reactant solution (100 mM phosphate buffer, 1 mM EDTA-2Na, pH 6.3), Fab's of mouse anti-CD9 monoclonal antibody was mixed with maleimidized ALP at a molar ratio of 1: 1, and reacted at 25° C. for one hour. The reactant solution was subjected to purification using Superdex 200 column chromatography (General Electric Company) to obtain ALP-labeled anti-CD9 antibody. Each ALP-labeled antibody was suspended in a labeled antibody diluent (50 mM MES buffer, 150 mM NaCl2, 0.3 mM ZnCl2, 1 mM MgCl2, 0.1% NaN3, 2.0% BSA, pH 6.8) to obtain each labeled antibody solution.
20 μL of the sample for measurement and 50 μL of the anti-CD9 antibody solid-phased particle solution were dispensed into the reaction vessel and stirred. Then, the resulting solution was incubated at 37° C. for 8 minutes (primary reaction), and B/F separation and washing were carried out. 50 μL of the ALP-labeled antibody was dispensed into the reaction vessel, the resulting solution was stirred and then incubated at 37° C. for 8 minutes, and B/F separation and washing were carried out. Then, 200 μL of Lumipulse (registered trademark) substrate solution (Fujirebio Inc.) containing 3-(2′-spiroadamantane)-4-methoxy-4-(3″-phosphoryloxy)phenyl-1,2-dioxetane disodium salt (AMPPD) serving as a chemiluminescent substance was dispensed into the reaction chamber. The resulting solution was stirred and then incubated at 37° C. for 4 minutes for the measurement of luminescence intensity using luminometer. A count value was obtained as the measured value. The luminescence intensity was measured using a fully automated chemiluminescent enzyme immunoassay system (Lumipulse L2400 (Fujirebio Inc.)). […]
In addition, CD9 was measured also for a solution obtained by adding 100 mM EGTA to the CD9 antibody solid-phased particle solution. […]

For data set [4] the test system is unchanged. Kind of data set: Study of surfactant type in combination with EGTA (CD9 in supernatant, Example 6). Also on record: species or system human. Particulars: EGTA 200 mM, no surfactant (D-PBS(-)). Here is the method: as §1, with “solution. […]” for “solution.”
20 μL of the sample for measurement and 50 μL of the anti-CD9 antibody solid-phased particle solution were dispensed into the reaction vessel and stirred. […] The resulting solution was stirred and then incubated at 37° C. for 4 minutes for the measurement of luminescence intensity using luminometer. A count value was obtained as the measured value. The luminescence intensity was measured using a fully automated chemiluminescent enzyme immunoassay system (Lumipulse L2400 (Fujirebio Inc.)). […]

The test system is the same in data set [5]. The data set can be described thus: Study of concentrations of chelating agent and surfactant (CD9 in supernatant, Example 4). Also on record: species or system human. Particulars: Tergitol 15-S-40 0%. Here is the method: as §1, §2
20 μL of the sample for measurement and 50 μL of the anti-CD9 antibody solid-phased particle solution were dispensed into the reaction vessel and stirred. Then, the resulting solution was incubated at 37° C. for 8 minutes (primary reaction), and B/F separation and washing were carried out. 50 μL of the ALP-labeled antibody was dispensed into the reaction vessel, the resulting solution was stirred and then incubated at 37° C. for 8 minutes, and B/F separation and washing were carried out. Then, 200 μL of Lumipulse (registered trademark) substrate solution (Fujirebio Inc.) containing 3-(2′-spiroadamantane)-4-methoxy-4-(3″-phosphoryloxy)phenyl-1,2-dioxetane disodium salt (AMPPD) serving as a chemiluminescent substance was dispensed into the reaction chamber. The resulting solution was stirred and then incubated at 37° C. for 4 minutes for the measurement of luminescence intensity using luminometer. A count value was obtained as the measured value. The luminescence intensity was measured using a fully automated chemiluminescent enzyme immunoassay system (Lumipulse L2400 (Fujirebio Inc.)).
Antibodies recognizing the same epitope in CD9 were used as the antibody solid-phased on the magnetic particle and the ALP-labeled antibody. Due to the presence of a plurality of CD9 on a single extracellular vesicle, it is possible to measure for the extracellular vesicle presenting a plurality of CD9 to be indicated as the surface marker rather than free CD9 by means of the sandwich immunoassay in which the antibodies recognizing the same epitope as the solid-phased antibodies were used as the ALP-labeled antibodies.
Various concentrations of the chelating agent and the surfactant were added to human whole blood, for the measurement of CD9 in the supernatant obtained after centrifugation. […]

The mark [6] stands for this setting: surfactant final 0.5 W/V % in whole blood, visual check of supernatant.

Where two headings read alike, the source gives them in different places.

Regarding `CCCCCCCCCCCC[N+](C)(C)CCCS(=O)(=O)[O-]` [C12APS, N-dodecyl-N,N-dimethyl-3-ammonio-l-propanesulfonate], in the data set with human whole blood (setting [6]), the “Hemolysis, Specimen 1” value was “Hemolysis” and the “Hemolysis, Specimen 2” value is “Hemolysis”.

As for `CCCCCCCCCCCCCCCC[N+](C)(C)C.[Cl-]` [C16TAC, hexadecyltrimethylammonium chloride], in the data set on human whole blood (setting [6]), the “Hemolysis, Specimen 1” value was “Hemolysis” and the “Hemolysis, Specimen 2” value was “Hemolysis”.

As to `C[C@H](CCC(=O)NCCC[N+](C)(C)CCCS(=O)(=O)[O-])[C@H]1CC[C@H]2[C@@H]3[C@H](O)C[C@@H]4C[C@H](O)CC[C@]4(C)[C@H]3C[C@H](O)[C@]12C` [CHAPS], in the data set with human whole blood (setting [6]), the “Hemolysis, Specimen 1” value is on record as “Hemolysis” and the “Hemolysis, Specimen 2” value was “Hemolysis”.

Take `O=C(O)CN(CCN(CC(=O)O)CC(=O)O)CC(=O)O.[Na].[Na]` [EDTA2Na, disodium ethylenediaminetetraacetic acid]: the “vs. non-addition (%)” value in data set [1] turned out to be 376.6%. The “vs. No chelating agent and surfactant added (%)” value in data set [2] worked out at 196.6%.

Regarding `O=C(O)CN(CCOCCOCCN(CC(=O)O)CC(=O)O)CC(=O)O` [EGTA, glycol ether diamine tetraacetic acid], the “vs. no EGTA (%)” value stood at 112.9% in data set [3] (blood collection vessel: 200 mM EGTA, 0% Tergitol) and 71% in data set [3] (blood collection vessel: nothing added). Besides, the “vs. non-addition (%)” value in data set [3] (blood collection vessel: 200 mM EGTA, 0% Tergitol, particle solution: 100 mM EGTA + 0.5% Tergitol) is given as 843.5%; in data set [3] (blood collection vessel: 200 mM EGTA, 0% Tergitol, particle solution: 0.5% Tergitol), 530.5%; in data set [1], 215%. Further, in data set [4], the vs. non-addition amounted to 366.4. For the same compound, in data set [2], the “vs. No chelating agent and surfactant added (%)” value was 332.6%. Besides, the “CD9 vs. 0 mM EGTA (%)” value is on record as 154% in data set [5] (EGTA 10 mM), 294% in data set [5] (EGTA 50 mM), 532% in data set [5] (EGTA 100 mM) and 721% in data set [5] (EGTA 200 mM). In addition, the “CD9 vs. 0% Tergitol (%)” value in data set [5] (EGTA 50 mM) turned out to be 294%.

`O=C(O)CN(CCO)CCN(CC(=O)O)CC(=O)O` [HEDTA, hydroxyethyl ethylenediaminetriacetic acid]: in data set [1], the “vs. non-addition (%)” value turned out to be 963.9%.

Regarding `CCCCCCCCCC(=O)N(C)CC(=O)O.[Na]` [N-DSS (NDS), N-decanoyl sarcosine sodium], in the data set on human whole blood, the “Hemolysis, Specimen 1” value is “Hemolysis” and the “Hemolysis, Specimen 2” value is reported as “Hemolysis”.

For the compound `CCCCCCCCCCCC(=O)N(C)CC(=O)O.O.[Na]` [NLS, N-lauroyl sarcosine sodium hydrate], in the data set with human whole blood, the “Hemolysis, Specimen 1” value was “Hemolysis” and the “Hemolysis, Specimen 2” value is “Hemolysis”.

On to `O=C(O)CN(CC(=O)O)CC(=O)O` [NTA, nitrilotriacetic acid], for which, in data set [1], the “vs. non-addition (%)” value was found to be 427.7%.

The values are drawn from patent US20230051797A1, “METHOD FOR RECOVERING EXTRACELLULAR VESICLE AND BLOOD COLLECTION VESSEL” (FUJIREBIO INC., priority 2019, published 2023).
